± gives the standard deviation of the averaged measurements.
What was measured:
AZD4547 = compound: COc1cc(CCc2cc(NC(=O)c3ccc(N4CC(C)NC(C)C4)cc3)n[nH]2)cc(OC)c1 [AZD4547]; experiment: surviving fraction relative to DMSO-only wells; higher = less growth inhibition; conditions: exposure time: 5 days
How it was run: (§1)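 Log-phase tumour cell lines, 250–500 cells per well in 384-well plates, received inhibitors at 0.5, 1, 5, 10, 50, 100, 500 and 1000 nM continuously for five days, starting 24 hours after seeding. Viability was quantified with CellTiter-Glo luminescence and normalised to the median of DMSO-only wells to give surviving fraction. Three screens were run per line, and a line stayed in only with replicate Pearson r >0.7 and median Z' >0.3.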

[1] = compound: Cc1nc(Nc2n[nH]c3c2CN(C(=O)N[C@H](CN(C)C)c2ccccc2)C3(C)C)c2sccc2n1; experiment: as above; conditions: exposure time: 5 days
How it was run: as §1

Test System | surviving fraction (AZD4547; 0.5 nM) | surviving fraction (AZD4547; 1 nM) | surviving fraction (AZD4547; 5 nM) | surviving fraction (AZD4547; 10 nM) | surviving fraction (AZD4547; 50 nM) | surviving fraction (AZD4547; 100 nM) | surviving fraction (AZD4547; 500 nM) | surviving fraction (AZD4547; 1000 nM) | surviving fraction ([1]; 0.5 nM) | surviving fraction ([1]; 1 nM) | surviving fraction ([1]; 5 nM) | surviving fraction ([1]; 10 nM) | surviving fraction ([1]; 50 nM) | surviving fraction ([1]; 100 nM) | surviving fraction ([1]; 500 nM) | surviving fraction ([1]; 1000 nM)
22RV1 PROSTATE | 1 ± 0.06 | 1.01 ± 0.059 | 1.02 ± 0.044 | 1.07 ± 0.056 | 0.998 ± 0.048 | 1.03 ± 0.053 | 1.1 ± 0.084 | 1.08 ± 0.082 | 0.963 ± 0.14 | 0.783 ± 0.078 | 0.334 ± 0.035 | 0.321 ± 0.051 | 0.348 ± 0.018 | 0.313 ± 0.058 | 0.291 ± 0.058 | 0.27 ± 0.025
93VU HEADNECK | 1.01 ± 0.063 | 1.08 ± 0.058 | 1.08 ± 0.09 | 1.11 ± 0.05 | 1.11 ± 0.042 | 1.16 ± 0.089 | 1.1 ± 0.077 | 0.975 ± 0.086 | 1.01 ± 0.12 | 0.883 ± 0.045 | 0.39 ± 0.012 | 0.298 ± 0.044 | 0.24 ± 0.018 | 0.195 ± 0.0078 | 0.0973 ± 0.013 | 0.0723 ± 0.0095
143B BONE | 0.948 ± 0.096 | 1.011 ± 0.0042 | 1.04 ± 0.014 | 1.02 ± 0.067 | 0.921 ± 0.13 | 1.01 ± 0.06 | 0.994 ± 0.04 | 0.974 ± 0.1 | 0.96 ± 0.021 | 0.969 ± 0.015 | 0.726 ± 0.032 | 0.494 ± 0.011 | 0.293 ± 0.033 | 0.259 ± 0.016 | 0.158 ± 0.0042 | 0.0825 ± 0.0035
A549 LUNG | 0.984 ± 0.02 | 1.03 ± 0.064 | 1.01 ± 0.039 | 1.02 ± 0.069 | 0.9867 ± 0.0075 | 1.03 ± 0.066 | 0.983 ± 0.026 | 1.031 ± 0.007 | 1.03 ± 0.051 | 0.952 ± 0.064 | 0.988 ± 0.064 | 0.578 ± 0.021 | 0.38 ± 0.033 | 0.311 ± 0.022 | 0.2537 ± 0.0015 | 0.208 ± 0.011
ASKA SYNOVIAL | 1.15 ± 0.06 | 1.11 ± 0.015 | 1.2 ± 0.058 | 1.12 ± 0.021 | 1.16 ± 0.036 | 1.08 ± 0.084 | 0.877 ± 0.059 | 0.658 ± 0.041 | 0.673 ± 0.043 | 1.09 ± 0.022 | 0.4283 ± 0.0031 | 1.16 ± 0.16 | 0.43 ± 0.027 | 1.28 ± 0.018 | 0.3113 ± 0.0015 | 1.08 ± 0.051
BT20 BREAST | 1.12 ± 0.13 | 1.08 ± 0.071 | 1.11 ± 0.059 | 1.13 ± 0.061 | 1.05 ± 0.072 | 1.04 ± 0.072 | 1.15 ± 0.043 | 0.968 ± 0.15 | 1.21 ± 0.12 | 1.11 ± 0.056 | 1.34 ± 0.025 | 1.28 ± 0.013 | 0.841 ± 0.11 | 0.631 ± 0.12 | 0.614 ± 0.076 | 0.542 ± 0.062
BT549 BREAST | 1.16 ± 0.2 | 1.06 ± 0.055 | 1.16 ± 0.18 | 1.19 ± 0.13 | 1.04 ± 0.12 | 0.95 ± 0.096 | 0.968 ± 0.094 | 0.861 ± 0.052 | 1.02 ± 0.065 | 0.928 ± 0.064 | 0.299 ± 0.035 | 0.232 ± 0.034 | 0.0943 ± 0.0086 | 0.092 ± 0.019 | 0.0593 ± 0.012 | 0.052 ± 0.02
CADOES1 SOFT TISSUE | 0.988 ± 0.032 | 1.02 ± 0.097 | 0.977 ± 0.1 | 0.973 ± 0.046 | 0.912 ± 0.085 | 0.955 ± 0.017 | 1.09 ± 0.11 | 0.992 ± 0.11 | 0.919 ± 0.029 | 0.865 ± 0.035 | 0.953 ± 0.11 | 0.957 ± 0.14 | 0.764 ± 0.047 | 0.721 ± 0.093 | 0.401 ± 0.014 | 0.291 ± 0.026
CAL51 BREAST | 0.9767 ± 0.007 | 0.977 ± 0.035 | 0.937 ± 0.029 | 0.849 ± 0.052 | 0.7553 ± 0.0068 | 0.738 ± 0.022 | 0.616 ± 0.021 | 0.602 ± 0.059 | 0.898 ± 0.011 | 0.765 ± 0.047 | 0.281 ± 0.017 | 0.181 ± 0.0083 | 0.0752 ± 0.002 | 0.0562 ± 0.0013 | 0.0417 ± 0.0018 | 0.0317 ± 0.0014
CAL120 BREAST | 0.945 ± 0.043 | 0.9817 ± 0.0068 | 0.937 ± 0.03 | 0.888 ± 0.025 | 0.713 ± 0.029 | 0.681 ± 0.019 | 0.552 ± 0.05 | 0.491 ± 0.039 | 0.904 ± 0.0095 | 0.599 ± 0.021 | 0.364 ± 0.019 | 0.287 ± 0.0047 | 0.242 ± 0.03 | 0.223 ± 0.0029 | 0.24 ± 0.028 | 0.151 ± 0.018
CASKI CERVIX | 0.927 ± 0.055 | 0.951 ± 0.033 | 1.01 ± 0.014 | 1.02 ± 0.073 | 0.961 ± 0.053 | 1.03 ± 0.048 | 0.805 ± 0.02 | 0.548 ± 0.019 | 0.713 ± 0.037 | 0.472 ± 0.0095 | 0.237 ± 0.0071 | 0.193 ± 0.0081 | 0.13 ± 0.013 | 0.0993 ± 0.012 | 0.0227 ± 0.0031 | 0.0183 ± 0.00058
CHLA90 AUTONOMIC GANGLIA | 0.994 ± 0.075 | 1.04 ± 0.099 | 1.07 ± 0.07 | 1.01 ± 0.014 | 0.883 ± 0.051 | 0.692 ± 0.039 | 0.568 ± 0.029 | 0.473 ± 0.041 | 0.916 ± 0.055 | 0.826 ± 0.037 | 0.58 ± 0.045 | 0.477 ± 0.018 | 0.38 ± 0.036 | 0.331 ± 0.0082 | 0.233 ± 0.018 | 0.2 ± 0.011
CME SYNOVIAL | 1.21 ± 0.046 | 1.09 ± 0.063 | 1.29 ± 0.11 | 1.14 ± 0.14 | 1 ± 0.075 | 0.935 ± 0.097 | 0.761 ± 0.051 | 0.724 ± 0.035 | 0.982 ± 0.12 | 1.32 ± 0.047 | 0.564 ± 0.077 | 1.42 ± 0.17 | 0.287 ± 0.018 | 1.34 ± 0.057 | 0.325 ± 0.025 | 1.31 ± 0.06
COLO320DM LARGE INTESTINE | 1.08 ± 0.027 | 1.11 ± 0.049 | 0.994 ± 0.036 | 0.997 ± 0.21 | 1.1 ± 0.076 | 1.05 ± 0.1 | 1.08 ± 0.078 | 1.1 ± 0.2 | 1.1 ± 0.089 | 1.04 ± 0.041 | 1.11 ± 0.035 | 1.1 ± 0.072 | 0.793 ± 0.055 | 0.745 ± 0.019 | 0.333 ± 0.011 | 0.388 ± 0.015
DU4475 BREAST | 1.12 ± 0.37 | 0.979 ± 0.16 | 1.03 ± 0.27 | 0.998 ± 0.13 | 1.15 ± 0.3 | 1.08 ± 0.21 | 1.11 ± 0.21 | 1 ± 0.22 | 0.654 ± 0.12 | 0.452 ± 0.065 | 0.138 ± 0.048 | 0.0743 ± 0.013 | 0.038 ± 0.0095 | 0.029 ± 0.0056 | 0.0257 ± 0.0045 | 0.0277 ± 0.006
H23 LUNG | 0.965 ± 0.059 | 1.06 ± 0.052 | 1.03 ± 0.055 | 1.04 ± 0.02 | 1.01 ± 0.037 | 1.05 ± 0.028 | 0.979 ± 0.075 | 0.964 ± 0.066 | 0.989 ± 0.029 | 0.929 ± 0.051 | 0.578 ± 0.032 | 0.35 ± 0.025 | 0.26 ± 0.0067 | 0.23 ± 0.013 | 0.216 ± 0.0089 | 0.206 ± 0.023
